Data from ChEMBL document CHEMBL5465560, “Selectivity Literature for EUbOPEN Chemogenomic Library” (2024).

What was measured:
[1] = biological target: Mitogen-activated protein kinase kinase kinase kinase 1 (Homo sapiens) (UniProt Q92918); experiment: Selectivity interaction (KinomeScan (DiscoverX)) EUB0000229b MAP4K1; conditions: at 10 µM
[2] = biological target: Protein arginine N-methyltransferase 3 (Homo sapiens, UniProt O60678); conditions: at 1 µM
[3] = biological target: T1, Inhibitor of nuclear factor kappa-B kinase subunit alpha (Homo sapiens) (UniProt O15111); experiment: Selectivity interaction (KinomeScan (DiscoverX)) EUB0000695a CHUK; conditions: at 100 nM
T1 sequence (whole entry): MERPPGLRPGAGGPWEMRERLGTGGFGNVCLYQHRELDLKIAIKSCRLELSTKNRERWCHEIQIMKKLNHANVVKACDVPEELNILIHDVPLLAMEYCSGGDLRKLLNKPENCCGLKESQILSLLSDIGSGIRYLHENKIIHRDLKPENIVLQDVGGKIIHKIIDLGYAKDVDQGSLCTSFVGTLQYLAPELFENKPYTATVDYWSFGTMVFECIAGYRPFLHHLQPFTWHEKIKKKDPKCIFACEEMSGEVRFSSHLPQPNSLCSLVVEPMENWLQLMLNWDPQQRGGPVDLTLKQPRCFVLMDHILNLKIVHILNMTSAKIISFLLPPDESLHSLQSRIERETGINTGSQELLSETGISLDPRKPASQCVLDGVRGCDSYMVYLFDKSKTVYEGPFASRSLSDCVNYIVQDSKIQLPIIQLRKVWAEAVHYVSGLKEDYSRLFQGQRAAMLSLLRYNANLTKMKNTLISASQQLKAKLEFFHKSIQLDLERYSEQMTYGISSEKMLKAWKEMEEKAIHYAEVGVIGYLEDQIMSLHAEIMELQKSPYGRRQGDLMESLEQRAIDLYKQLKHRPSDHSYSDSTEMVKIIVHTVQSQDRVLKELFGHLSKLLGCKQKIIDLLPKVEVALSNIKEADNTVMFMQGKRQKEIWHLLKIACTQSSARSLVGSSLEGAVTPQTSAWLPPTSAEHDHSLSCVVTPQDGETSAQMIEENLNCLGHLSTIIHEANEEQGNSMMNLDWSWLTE

[4] = biological target: Serine/threonine-protein kinase 16 (Homo sapiens, UniProt O75716); experiment: Selectivity interaction (KinomeScan (DiscoverX)) EUB0001079a STK16; conditions: at 1 µM
[5] = biological target: Mitogen-activated protein kinase kinase kinase 9 (Homo sapiens) (UniProt P80192); experiment: Selectivity interaction (KinomeScan (DiscoverX)) EUB0001079a MAP3K9; conditions: at 1 µM
[6] = test system: Tyrosine-protein kinase ABL1 (Homo sapiens), P00519 [Q252H]; experiment: Selectivity interaction (KinomeScan (DiscoverX)) EUB0000666a ABL1; conditions: at 10 µM
[7] = test system: Hepatocyte growth factor receptor (Homo sapiens), P08581 [Y1235D]; conditions: at 10 µM
[8] = biological target: Serine/threonine-protein kinase WNK3 (Homo sapiens) (UniProt Q9BYP7); experiment: Selectivity interaction (KinomeScan (DiscoverX)) EUB0001049a WNK3; conditions: at 1 µM
[9] = test system: Mast/stem cell growth factor receptor Kit (Homo sapiens), P10721 [V559D,T670I]; experiment: (§1) Selectivity interaction (KinomeScan (DiscoverX)) EUB0001049a KIT; conditions: at 1 µM
[10] = test system: Mast/stem cell growth factor receptor Kit (Homo sapiens), P10721 [D816V]; experiment: as §1; conditions: at 1 µM
[11] = test system: Mast/stem cell growth factor receptor Kit (Homo sapiens), P10721 [V559D,V654A]; experiment: as §1; conditions: at 1 µM
[12] = test system: Mast/stem cell growth factor receptor Kit (Homo sapiens), P10721 [A829P]; experiment: as §1; conditions: at 1 µM
[13] = biological target: Mast/stem cell growth factor receptor Kit (Homo sapiens, UniProt P10721); experiment: as §1; conditions: at 1 µM
[14] = test system: Mast/stem cell growth factor receptor Kit (Homo sapiens), P10721 [V559D]; experiment: as §1; conditions: at 1 µM
[15] = test system: Mast/stem cell growth factor receptor Kit (Homo sapiens), P10721 [L576P]; experiment: as §1; conditions: at 1 µM
[16] = test system: Mast/stem cell growth factor receptor Kit (Homo sapiens), P10721 [D816H]; experiment: as §1; conditions: at 1 µM
[17] = biological target: Cyclin-dependent kinase 5/CDK5 activator 1 (Homo sapiens) (UniProt Q00535+Q15078); experiment: Selectivity interaction (ProQinase) EUB0000171b CDK5; type: protein-complex assay; conditions: at 5 µM
[18] = biological target: 3',5'-cyclic-AMP phosphodiesterase 4B (Homo sapiens) (UniProt Q07343); experiment: Selectivity interaction (Panel of kinases, GPCRs, ion channels and transporters (enzymatic assay)) EUB0000223bCl PDE4B
[19] = biological target: TRAF2 and NCK-interacting protein kinase (Homo sapiens) (UniProt Q9UKE5); experiment: Selectivity interaction (KinomeScan (DiscoverX)) EUB0000607a TNIK; conditions: at 10 µM
[20] = biological target: Tyrosine-protein kinase JAK1 (Homo sapiens, UniProt P23458); experiment: Selectivity interaction (KinomeScan (DiscoverX)) EUB0000607a JAK1; conditions: at 10 µM
[21] = biological target: Calcium/calmodulin-dependent protein kinase type 1G (Homo sapiens) (UniProt Q96NX5); experiment: Selectivity interaction (Kinase panel (DSF assay)) EUB0001558a CAMK1G
[22] = biological target: Cyclin-dependent kinase 9 (Homo sapiens, UniProt P50750); experiment: Selectivity interaction (KinomeScan (DiscoverX)) EUB0000618a CDK9; conditions: at 10 µM
[23] = biological target: Ephrin type-A receptor 7 (Homo sapiens) (UniProt Q15375); experiment: Selectivity interaction (KinomeScan (DiscoverX)) EUB0000618a EPHA7; conditions: at 10 µM
[24] = biological target: T2, Homeodomain-interacting protein kinase 4 (Homo sapiens) (UniProt Q8NE63); experiment: Selectivity interaction (Kinase panel (Invitrogen)) EUB0000639a HIPK4; conditions: at 200 nM
T2 sequence (whole entry): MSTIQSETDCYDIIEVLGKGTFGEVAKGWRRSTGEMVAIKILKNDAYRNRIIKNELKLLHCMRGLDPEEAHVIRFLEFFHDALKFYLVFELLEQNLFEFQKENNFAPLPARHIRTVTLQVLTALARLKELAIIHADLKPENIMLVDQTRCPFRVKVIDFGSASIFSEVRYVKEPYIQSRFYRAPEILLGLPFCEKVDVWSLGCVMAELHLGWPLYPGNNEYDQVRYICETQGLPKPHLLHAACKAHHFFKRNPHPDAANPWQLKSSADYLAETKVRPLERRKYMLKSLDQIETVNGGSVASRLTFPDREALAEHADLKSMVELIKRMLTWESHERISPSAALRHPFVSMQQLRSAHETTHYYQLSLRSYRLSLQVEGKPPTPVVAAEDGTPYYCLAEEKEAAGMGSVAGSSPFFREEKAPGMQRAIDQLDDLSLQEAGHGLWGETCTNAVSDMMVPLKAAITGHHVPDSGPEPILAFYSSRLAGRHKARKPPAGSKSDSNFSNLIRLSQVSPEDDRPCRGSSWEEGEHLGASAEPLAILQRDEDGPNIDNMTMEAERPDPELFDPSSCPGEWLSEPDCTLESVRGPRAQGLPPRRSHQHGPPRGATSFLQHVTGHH

[25] = biological target: Tyrosine-protein kinase SYK (Homo sapiens, UniProt P43405); experiment: Selectivity interaction (ActivX KiNativ screen (kinase selectivity in THP-1 cell lysates)) EUB0000639a SYK; type: subcellular; conditions: lysate, at 0.2 µM

Sequence of Mast/stem cell growth factor receptor Kit (Homo sapiens), P10721 [L576P] (P10721 whole entry L576P): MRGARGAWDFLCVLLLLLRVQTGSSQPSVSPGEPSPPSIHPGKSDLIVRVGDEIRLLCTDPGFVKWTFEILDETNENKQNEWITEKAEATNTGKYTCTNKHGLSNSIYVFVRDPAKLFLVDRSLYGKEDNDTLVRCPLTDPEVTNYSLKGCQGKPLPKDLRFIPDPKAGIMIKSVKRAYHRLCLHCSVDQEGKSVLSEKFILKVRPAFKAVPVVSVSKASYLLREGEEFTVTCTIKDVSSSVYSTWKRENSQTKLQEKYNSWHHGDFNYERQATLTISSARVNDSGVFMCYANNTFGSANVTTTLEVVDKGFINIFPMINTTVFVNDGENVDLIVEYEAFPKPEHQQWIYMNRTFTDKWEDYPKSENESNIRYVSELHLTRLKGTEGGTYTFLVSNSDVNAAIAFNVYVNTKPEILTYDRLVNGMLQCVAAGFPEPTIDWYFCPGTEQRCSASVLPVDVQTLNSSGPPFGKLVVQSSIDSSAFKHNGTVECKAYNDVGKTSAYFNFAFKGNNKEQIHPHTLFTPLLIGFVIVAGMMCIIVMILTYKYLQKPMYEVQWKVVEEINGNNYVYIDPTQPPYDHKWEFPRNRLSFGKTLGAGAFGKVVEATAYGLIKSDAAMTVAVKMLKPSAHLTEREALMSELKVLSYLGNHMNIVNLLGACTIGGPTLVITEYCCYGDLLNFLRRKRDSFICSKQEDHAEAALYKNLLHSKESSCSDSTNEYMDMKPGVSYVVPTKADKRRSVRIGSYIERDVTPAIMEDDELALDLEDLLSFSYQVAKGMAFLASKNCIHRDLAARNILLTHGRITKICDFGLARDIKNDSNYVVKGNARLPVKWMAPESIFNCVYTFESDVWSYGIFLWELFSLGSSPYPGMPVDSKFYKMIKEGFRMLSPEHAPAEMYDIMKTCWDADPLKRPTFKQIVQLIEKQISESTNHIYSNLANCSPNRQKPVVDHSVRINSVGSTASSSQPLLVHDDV
Sequence of Hepatocyte growth factor receptor (Homo sapiens), P08581 [Y1235D] (P08581 whole entry Y1235D): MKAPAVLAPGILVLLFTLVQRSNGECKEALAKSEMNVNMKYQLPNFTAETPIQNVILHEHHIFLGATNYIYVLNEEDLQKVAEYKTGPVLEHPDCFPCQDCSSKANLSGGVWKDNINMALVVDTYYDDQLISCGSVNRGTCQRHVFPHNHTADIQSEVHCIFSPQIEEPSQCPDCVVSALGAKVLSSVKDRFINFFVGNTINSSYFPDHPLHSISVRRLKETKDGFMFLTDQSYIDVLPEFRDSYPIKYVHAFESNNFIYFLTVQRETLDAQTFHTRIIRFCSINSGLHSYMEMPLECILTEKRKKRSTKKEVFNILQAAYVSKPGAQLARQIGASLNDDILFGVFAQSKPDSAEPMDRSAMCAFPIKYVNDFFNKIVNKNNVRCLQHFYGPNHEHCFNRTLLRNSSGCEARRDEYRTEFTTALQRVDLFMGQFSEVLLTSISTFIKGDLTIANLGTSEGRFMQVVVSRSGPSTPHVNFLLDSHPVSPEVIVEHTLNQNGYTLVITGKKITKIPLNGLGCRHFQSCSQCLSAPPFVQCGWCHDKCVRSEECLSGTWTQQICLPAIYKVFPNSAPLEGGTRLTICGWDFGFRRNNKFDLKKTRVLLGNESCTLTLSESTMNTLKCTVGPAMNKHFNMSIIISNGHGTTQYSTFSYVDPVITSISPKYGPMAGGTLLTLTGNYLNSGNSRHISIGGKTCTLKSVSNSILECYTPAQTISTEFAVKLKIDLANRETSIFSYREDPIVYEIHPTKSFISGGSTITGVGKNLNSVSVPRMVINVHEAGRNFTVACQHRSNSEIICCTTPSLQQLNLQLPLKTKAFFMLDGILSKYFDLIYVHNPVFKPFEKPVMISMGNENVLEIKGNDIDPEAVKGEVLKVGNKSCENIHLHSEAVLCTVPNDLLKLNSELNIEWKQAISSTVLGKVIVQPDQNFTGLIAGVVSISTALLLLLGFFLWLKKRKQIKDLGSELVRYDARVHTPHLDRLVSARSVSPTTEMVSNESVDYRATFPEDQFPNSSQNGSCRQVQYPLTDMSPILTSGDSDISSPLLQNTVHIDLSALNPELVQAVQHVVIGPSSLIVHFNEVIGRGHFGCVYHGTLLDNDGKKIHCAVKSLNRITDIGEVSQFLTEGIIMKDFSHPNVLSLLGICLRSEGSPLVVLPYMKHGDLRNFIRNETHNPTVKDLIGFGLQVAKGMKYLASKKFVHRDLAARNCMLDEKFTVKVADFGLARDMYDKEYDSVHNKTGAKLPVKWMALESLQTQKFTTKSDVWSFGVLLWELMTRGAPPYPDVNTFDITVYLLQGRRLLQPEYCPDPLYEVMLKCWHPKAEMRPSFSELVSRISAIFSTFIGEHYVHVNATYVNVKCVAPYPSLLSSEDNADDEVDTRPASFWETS
Sequence of Mitogen-activated protein kinase kinase kinase kinase 1 (Homo sapiens) (Q92918 whole entry, looked up): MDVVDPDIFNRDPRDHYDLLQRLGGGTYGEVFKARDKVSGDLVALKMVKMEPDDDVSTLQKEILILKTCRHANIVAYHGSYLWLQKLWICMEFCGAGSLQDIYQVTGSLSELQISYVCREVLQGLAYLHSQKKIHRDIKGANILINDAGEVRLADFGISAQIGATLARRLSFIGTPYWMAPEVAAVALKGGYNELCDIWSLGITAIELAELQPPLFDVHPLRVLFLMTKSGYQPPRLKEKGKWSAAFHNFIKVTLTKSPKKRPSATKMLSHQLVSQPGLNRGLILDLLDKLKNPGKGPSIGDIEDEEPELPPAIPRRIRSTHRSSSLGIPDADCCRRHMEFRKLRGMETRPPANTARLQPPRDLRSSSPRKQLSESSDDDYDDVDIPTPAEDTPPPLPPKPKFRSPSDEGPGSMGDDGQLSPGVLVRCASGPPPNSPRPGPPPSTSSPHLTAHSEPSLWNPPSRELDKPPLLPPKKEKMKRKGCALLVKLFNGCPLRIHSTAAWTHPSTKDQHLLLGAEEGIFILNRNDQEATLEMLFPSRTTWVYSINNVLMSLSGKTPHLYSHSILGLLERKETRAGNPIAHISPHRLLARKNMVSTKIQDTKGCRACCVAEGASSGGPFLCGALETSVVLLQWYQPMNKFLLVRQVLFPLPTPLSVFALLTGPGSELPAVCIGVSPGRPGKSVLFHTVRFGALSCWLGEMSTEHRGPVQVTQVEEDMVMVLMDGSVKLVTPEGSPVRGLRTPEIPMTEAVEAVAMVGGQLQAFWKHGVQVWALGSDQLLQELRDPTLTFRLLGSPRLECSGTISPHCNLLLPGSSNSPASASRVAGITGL
Sequence of Cyclin-dependent kinase 5/CDK5 activator 1 (Homo sapiens) (Q00535 whole entry): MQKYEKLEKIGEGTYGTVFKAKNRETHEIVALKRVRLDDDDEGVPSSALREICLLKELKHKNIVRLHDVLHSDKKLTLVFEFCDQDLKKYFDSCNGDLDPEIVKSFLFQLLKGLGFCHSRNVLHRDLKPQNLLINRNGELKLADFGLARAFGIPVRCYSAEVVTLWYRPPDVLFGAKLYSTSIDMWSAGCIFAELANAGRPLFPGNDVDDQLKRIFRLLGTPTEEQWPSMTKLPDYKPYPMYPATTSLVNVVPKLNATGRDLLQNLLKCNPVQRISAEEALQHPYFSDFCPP
Sequence of Cyclin-dependent kinase 5/CDK5 activator 1 (Homo sapiens) (Q15078 99-307 partner limits assumed): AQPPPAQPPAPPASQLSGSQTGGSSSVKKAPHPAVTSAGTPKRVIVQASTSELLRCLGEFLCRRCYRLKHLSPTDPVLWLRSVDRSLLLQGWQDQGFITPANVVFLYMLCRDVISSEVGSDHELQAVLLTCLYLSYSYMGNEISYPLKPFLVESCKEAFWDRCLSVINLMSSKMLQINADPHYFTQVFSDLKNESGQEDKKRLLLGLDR
Sequence of 3',5'-cyclic-AMP phosphodiesterase 4B (Homo sapiens) (Q07343 whole entry): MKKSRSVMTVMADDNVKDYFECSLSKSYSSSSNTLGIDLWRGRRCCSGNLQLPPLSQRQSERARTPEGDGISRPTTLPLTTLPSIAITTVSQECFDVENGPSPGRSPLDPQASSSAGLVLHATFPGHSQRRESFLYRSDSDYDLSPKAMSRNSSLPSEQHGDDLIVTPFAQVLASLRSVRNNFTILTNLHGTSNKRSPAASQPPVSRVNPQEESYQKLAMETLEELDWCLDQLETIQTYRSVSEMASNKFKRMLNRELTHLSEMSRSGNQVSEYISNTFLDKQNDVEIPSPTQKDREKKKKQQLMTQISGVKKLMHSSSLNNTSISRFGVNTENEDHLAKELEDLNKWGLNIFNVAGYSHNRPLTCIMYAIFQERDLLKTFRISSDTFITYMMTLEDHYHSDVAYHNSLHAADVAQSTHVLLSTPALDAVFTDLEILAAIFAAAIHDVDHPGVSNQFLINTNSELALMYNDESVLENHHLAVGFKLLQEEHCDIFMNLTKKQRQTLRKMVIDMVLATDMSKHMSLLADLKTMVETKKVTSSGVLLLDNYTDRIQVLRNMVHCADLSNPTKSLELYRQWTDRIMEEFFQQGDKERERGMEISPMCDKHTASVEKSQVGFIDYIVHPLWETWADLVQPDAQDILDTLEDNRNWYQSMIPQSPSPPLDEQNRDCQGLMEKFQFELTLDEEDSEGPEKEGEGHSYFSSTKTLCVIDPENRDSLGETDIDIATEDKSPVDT
Sequence of Calcium/calmodulin-dependent protein kinase type 1G (Homo sapiens) (Q96NX5 whole entry): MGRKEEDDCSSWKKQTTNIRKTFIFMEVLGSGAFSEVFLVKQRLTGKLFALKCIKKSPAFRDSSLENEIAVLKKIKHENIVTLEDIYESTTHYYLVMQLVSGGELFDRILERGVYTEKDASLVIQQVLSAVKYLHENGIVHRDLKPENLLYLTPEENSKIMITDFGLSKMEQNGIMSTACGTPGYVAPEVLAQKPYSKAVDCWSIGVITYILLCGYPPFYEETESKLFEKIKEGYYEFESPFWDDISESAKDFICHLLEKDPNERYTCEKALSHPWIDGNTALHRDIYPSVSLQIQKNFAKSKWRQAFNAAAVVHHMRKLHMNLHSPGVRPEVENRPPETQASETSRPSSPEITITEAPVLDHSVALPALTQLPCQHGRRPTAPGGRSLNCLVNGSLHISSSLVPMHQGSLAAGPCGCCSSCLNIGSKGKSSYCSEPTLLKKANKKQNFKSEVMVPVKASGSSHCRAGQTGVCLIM

Work on `COc1cc(N(C)c2ccnc3ccc(C(F)(F)F)cc23)cc(OC)c1OC` yielded a % binding [1] of 96%.

`CNCCN1CCC(c2cc(CN(C)C(=O)c3cccc(Oc4ccccc4)c3)ccn2)CC1` gave a % activity [2] greater than 90%.

`Cc1cc(F)c(C(=O)Nc2cccc(-c3nncn3C(C)C)n2)cc1-n1cnc(C2CC2)c1` gave a % of control [3] of 100%.

`Nc1cnc(N2CCc3cc(S(=O)(=O)Nc4c(F)cc(Cl)cc4F)cc(N4CCCC4=O)c32)nc1` [TP-020n] showed a % of control [4] of 100% and a % of control [5] of 100%.

`O=C(NOC[C@H](O)CO)c1ccc(F)c(F)c1Nc1ccc(I)cc1F` showed a % of control [6] of 100%.

`Cc1cc([C@@H](C)Nc2ccccc2C(=O)O)c2nc(N3CCOCC3)cc(=O)n2c1` [AZD-6482] showed a % of control [7] of 78%.

`COc1cc(Nc2nc(C)cc(-c3cnn4nc(OC)ccc34)n2)cc(C(F)(F)F)c1` showed a % of control [8] of 81%, a % of control [9] of 85% and a % of control [10] of 96%. It also gave a % of control [11] of 62%, a % of control [12] of 84% and a % of control [13] of 89%. It also gave a % of control [14] of 80%, a % of control [15] of 100% and a % of control [16] of 66%.

`C=CC(=O)Nc1cccc(C(=O)Nc2ccc(Nc3cc(-c4[nH]c(SC)nc4C)ccn3)cc2)c1` gave a % of control [17] of 36%.

`COc1cc(C(=O)N2CC[C@@H](O)[C@@H](N)C2)cc2nc(-c3cc4ccccc4n3CC3CC3)n(C)c12` showed a pXC50 [18] of 4.4 M.

`CNC(=O)Nc1ccc(-c2nc(N3CC4CCC(C3)O4)c3cnn(C4CCC5(CC4)OCCO5)c3n2)cc1` was tested, and the % of control [19] was 100% and the % of control [20] was 83%.

`CC(C)(O)[C@H](F)CN1Cc2cc(NC(=O)c3cnn4cccnc34)c(N3CCOCC3)cc2C1=O` was tested, and the dTM [21] was 0.4 K.

In the case of `O[C@H]1CC[C@H](Nc2ncc3nc(Nc4c(F)cc(F)cc4F)n([C@H]4CCOC4)c3n2)CC1`, the % of control [22] is reported as 78% and the % of control [23] is reported as 100%.

For `CC[C@@H]1[C@H](F)C(=O)N[C@@H]1COc1nccc2cc(C(N)=O)c(OC)cc12` [ZIMLOVISERTIB], the % of inhibition [24] was 5.27% and the % of inhibition [25] was 9.3%.
